Experimental data taken from patent US20120315303A1, “METHODS AND INTRAVASCULAR TREATMENT DEVICES USING PACLITAXEL FOR TREATMENT OF ATHEROSCLEROSIS” (Medtronic Vascular, Inc., priority 2011, published 2012).

Tests used:
Format in all cases: cell-based
CDKN1A = test: qRT-PCR CDKN1A gene expression in drug-treated SFA smooth muscle cells; conditions: SFA smooth muscle cells from normal donor tissue; qRT-PCR calibrated against unstimulated control; FIG. 13A
Procedure: (§1) FIG. 13 depicts effects of paclitaxel on cellular morphology, gene and protein expression. (A and B) SFA smooth muscle cells from normal donor tissue were treated with Paclitaxel, Everolimus or Sirolimus. Gene expression levels were determined by qRT-PCR for each drug arm calibrated against unstimulated control for (A) CDKN1A and (C) CTGF. (B) SMCs were exposed to Sirolimus or Paclitaxel, fixed and stained with Actin (red) and Ki67 (green). (D) SFA derived smooth muscle cells were treated with Paclitaxel, Everolimus or Sirolimus then stimulated with Colchicinne (CTGF a) or Angiotensin II (CTGF b). Protein levels were detected by western blot using antibodies against CTGF and beta actin. One representative blot of three replicates shown.
(§2) Obtaining samples from SFA arteries allowed us to generate SFA derived-smooth muscle cells and to examine the expression of genes of interest as ide12tified in the disease atherectomy samples. In particularly we investigated the transcriptional response to anti-proliferative drugs, e.g. paclitaxel and drugs from the limus family such as sirolimus, everolimus or zotarolimus. These drugs are currently employed in combination devices indicated for the treatment of coronary and peripheral disease, including drug eluting stents and drug eluting balloons. […]

SFA smooth muscle cells = test: Actin and Ki67 staining of drug-exposed SMCs (cellular morphology); conditions: SMCs fixed and stained with Actin and Ki67; FIG. 13B
Procedure: as §1, §2

CTGF [1] = test: qRT-PCR CTGF gene expression in drug-treated SFA smooth muscle cells; conditions: qRT-PCR calibrated against unstimulated control, FIG. 13C
Procedure: as §1, §2

CTGF [2] = test: Western blot of CTGF protein in drug-treated SFA derived smooth muscle cells; conditions: SFA derived smooth muscle cells stimulated with Colchicinne or Angiotensin II, FIG. 13D
Procedure: as §1, §2

BTG2 = test: qRT-PCR BTG2 expression in drug-treated, inflammatory cocktail stimulated SFA smooth muscle cells; conditions: quiescent SFA smooth muscle cells stimulated with FBS, TGF Beta and IL1beta, FIG. 14A
Procedure: (§3) FIG. 14 depicts differential effect of paclitaxel versus the Limus family of drugs on expression of cell cycle, proliferation and ECM target genes in SFA smooth muscle cells. Quiescent SFA smooth muscle cells were treated with of Paclitaxel, Zotarolimus or Sirolimus then stimulated with inflammatory cocktail consisting of FBS, TGF Beta and IL1beta. Relative gene expression levels were determined by qRT-PCR for each drug treated arm as calibrated against the unstimulated baseline control for (A) BTG2, (B) KLF4, (C) PEDF, (D) Endothelin-1, (E) Thrombospondin-1, and (F) Thrombospondin-3.
(§4) Since the limus drugs have been known to affect the signaling via their effect on cell cycle inhibitors (CDKN1A and CDKN1B), we next studied their effects on the pertinent proliferative disease targets identified in this study. Specifically, we looked at BTG2, KLF4 and PEDF (FIGS. 14A, 14B, and 14C, respectively). […] The limus drugs, sirolimus and zotarolimus induced the expression of BTG2, KLF4 cell cycle inhibitors, but not of the proliferation PEDF inhibitor, which are previously unknown actions for these drugs.

KLF4 = test: qRT-PCR KLF4 expression in drug-treated, inflammatory cocktail stimulated SFA smooth muscle cells; conditions: quiescent SFA smooth muscle cells stimulated with FBS, TGF Beta and IL1beta, FIG. 14B
Procedure: as §3, §4

PEDF = test: qRT-PCR PEDF expression in drug-treated, inflammatory cocktail stimulated SFA smooth muscle cells; conditions: quiescent SFA smooth muscle cells stimulated with FBS, TGF Beta and IL1beta, FIG. 14C
Procedure: as §3, §4

Endothelin-1 = test: qRT-PCR Endothelin-1 expression in drug-treated, inflammatory cocktail stimulated SFA smooth muscle cells; conditions: quiescent SFA smooth muscle cells stimulated with FBS, TGF Beta and IL1beta, FIG. 14D
Procedure: as §3
(§5) In a similar manner, the expression of Thrombospondin-1 and Thrombospondin-3 is inhibited by paciltaxel but not by sirolimus and zotarolimus. Taken together the data with regards to the differential effects of commercially employed, anti-proliferative drugs, such as paciltaxel and drugs of the limus family, on the expression of SFA disease target genes can highlight/point to wards the most beneficial therapeutic mode of application and treatment.

Thrombospondin-1 = test: qRT-PCR Thrombospondin-1 expression in drug-treated, inflammatory cocktail stimulated SFA smooth muscle cells; conditions: quiescent SFA smooth muscle cells stimulated with FBS, TGF Beta and IL1beta, FIG. 14E
Procedure: as §3, §5

Thrombospondin-3 = test: qRT-PCR Thrombospondin-3 expression in drug-treated, inflammatory cocktail stimulated SFA smooth muscle cells; conditions: quiescent SFA smooth muscle cells stimulated with FBS, TGF Beta and IL1beta, FIG. 14F
Procedure: as §3, §5

Cathepsin S = test: In vitro Cathepsin S expression

| Structure (SMILES) | CDKN1A gene expression (CDKN1A) | effect on cellular cytoskeleton / morphology (SFA smooth muscle cells) | CTGF gene expression (CTGF [1]) | CTGF gene expression (CTGF [1]; listed as paclitexel) | CTGF protein levels (CTGF [2]) | BTG2 gene expression (BTG2) | KLF4 gene expression (KLF4) | PEDF gene expression (PEDF) | Endothelin-1 gene expression (Endothelin-1; listed as paciltaxel) | Endothelin-1 gene expression (Endothelin-1; listed as paclitexel) | Thrombospondin-1 gene expression (Thrombospondin-1; listed as paciltaxel) | Thrombospondin-1 gene expression (Thrombospondin-1; listed as paclitexel) | Thrombospondin-3 gene expression (Thrombospondin-3; listed as paciltaxel) | Thrombospondin-3 gene expression (Thrombospondin-3; listed as paclitexel) | Cathepsin S expression (Cathepsin S) | Endothelin-1 gene expression (Endothelin-1) |
| --- | --- | --- | --- | --- | --- | --- | --- | --- | --- | --- | --- | --- | --- | --- | --- | --- |
| CC(=O)O[C@H]1C(=O)[C@@]2(C)[C@H]([C@H](OC(=O)c3ccccc3)[C@]3(O)C[C@H](OC(=O)[C@H](O)[C@@H](NC(=O)c4ccccc4)c4ccccc4)C(C)=C1C3(C)C)[C@]1(OC(C)=O)CO[C@@H]1C[C@@H]2O (relative stereo) [Paclitaxel, (1S,2S,3R,4S,7R,9S,10S,12R,15S)-4,12-Diacetoxy-15-{[(2R,3S)-3-(benzoylamino)-2-hydroxy-3-phenylpropanoyl]oxy}-1,9-dihydroxy-10,14,17,17-tetramethyl-11-oxo-6-oxatetracyclo[11.3.1.0˜3, 10˜.0˜4,7˜]heptadec-13-en-2-yl rel-benzoate] | does not affect | disrupting cellular cytoskeleton | substantial down regulation | substantially down regulated | reduced | up regulated | up regulated | up regulated | slightly inhibited | substantially down regulated | inhibited | substantially down regulated | inhibited | substantially down regulated | induces | – |
| CO[C@H]1C[C@@H]2CC[C@@H](C)[C@@](O)(O2)C(=O)C(=O)N2CCCC[C@H]2C(=O)O[C@H]([C@H](C)C[C@@H]2CC[C@@H](OCCO)[C@H](OC)C2)CC(=O)[C@H](C)/C=C(\C)[C@@H](O)[C@@H](OC)C(=O)[C@H](C)C[C@H](C)/C=C/C=C/C=C/1C [everolimus] | up regulating | – | – | – | – | – | – | – | – | – | – | – | – | – | – | – |
| CO[C@H]1C[C@@H]2CC[C@@H](C)[C@@](O)(O2)C(=O)C(=O)N2CCCC[C@H]2C(=O)O[C@H]([C@H](C)C[C@@H]2CC[C@H](n3cnnn3)[C@H](OC)C2)CC(=O)[C@H](C)/C=C(\C)[C@@H](O)[C@@H](OC)C(=O)[C@H](C)C[C@H](C)/C=C/C=C/C=C/1C [zotarolimus] | – | – | – | – | – | induced | induced | – | – | – | – | – | – | – | – | substantially upregulated |
